Source: patent publication US20150353495A1 (PORTOLA PHARMACEUTICALS, INC., priority 2010, published 2015)

Experiments:
[1] = target: T1, JAK2 (Homo sapiens, UniProt O60674); test: Z'-LYTE kinase assay JAK2; assay type: biochemical
T1 construct: 5 μl of catalytic domain recombinant Kinase enzyme+Tyr peptide substrate (Invitrogen, CA); purchased Invitrogen
Method in brief: (§1)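 In duplicate wells, each test molecule (1% final DMSO) is incubated with recombinant kinase catalytic domain, Tyr6 peptide substrate and ATP for one hour at room temperature; a site-specific protease is then added for another hour before fluorescence reading.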

[2] = target: T2, JAK1 (Homo sapiens, UniProt P23458); test: Z'-LYTE kinase assay JAK1; assay type: biochemical
T2 construct: 5 μl of catalytic domain recombinant Kinase enzyme+Tyr peptide substrate (Invitrogen, CA); purchased Invitrogen
Method in brief: as §1

[3] = test system: JAK1/3 signaling to STAT6 in Ramos B cells; test: IL4 stimulation of JAK1/3 signaling to STAT6 in Ramos B cells (pSTAT6 Y641, FACS); assay type: cell-based; settings: Homo sapiens; for inhibition at 0.2 µM: 0.2 uM compound, read-out: IL-4/STAT6 in Ramos Percent Inhibition at 0.2 uM; for inhibition at 1 µM: 1.0 uM compound, read-out: IL-4/STAT6 in Ramos Percent Inhibition at 1.0 uM
Experimental: IL4 stimulation of JAK1/3 signaling to STATE in Ramos B cells:
As an alternative strategy to measure effect of JAK3 inhibitors on JAK1/3 dependent cytokine signaling pathways, IL4 stimulation of the Ramos Burkett's B cell line is used. IL4 engages a receptor consisting of the IL4 receptor alpha chain and the common gamma chain. […] Ramos B cells are suspended in tissue culture media containing 10% fetal calf serum at 10×10̂6 cells/ml. 100 μl aliquots are pre-treated for 1 hour with various concentrations of compound, and then stimulated for 15 minutes with 15 ng IL4. The signaling reaction is terminated by fixing in 2% paraformaldehyde for 10 minutes at room temperature. Fixed cells are then washed and permeablized by suspension in 100% methanol at −80° C. Following overnight incubation at 4° C., cells are washed and resuspended in PBS containing 0.5% bovine serum albumin containing pSTAT6 Y641-PE conjugated antibody. After 1 hour incubation, cells are washed and the extent of STAT6 phosphorlyation in Ramos cells is measured by FACS analysis.

[4] = target: T3, JAK3 (Homo sapiens, UniProt P52333); test: Z'-LYTE kinase assay JAK3; assay type: biochemical
T3 construct: 5 μl of catalytic domain recombinant Kinase enzyme+Tyr peptide substrate (Invitrogen, CA); purchased Invitrogen
Method in brief: as §1

T1 sequence (O60674 849-1124 limits assumed): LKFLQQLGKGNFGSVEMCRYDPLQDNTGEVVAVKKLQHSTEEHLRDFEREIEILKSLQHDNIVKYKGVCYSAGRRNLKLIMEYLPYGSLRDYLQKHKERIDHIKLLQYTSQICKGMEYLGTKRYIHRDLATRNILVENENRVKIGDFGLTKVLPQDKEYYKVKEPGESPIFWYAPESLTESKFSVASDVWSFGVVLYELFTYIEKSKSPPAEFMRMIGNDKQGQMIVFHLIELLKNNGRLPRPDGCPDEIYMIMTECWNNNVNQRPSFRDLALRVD
T2 sequence (P23458 875-1153 limits assumed): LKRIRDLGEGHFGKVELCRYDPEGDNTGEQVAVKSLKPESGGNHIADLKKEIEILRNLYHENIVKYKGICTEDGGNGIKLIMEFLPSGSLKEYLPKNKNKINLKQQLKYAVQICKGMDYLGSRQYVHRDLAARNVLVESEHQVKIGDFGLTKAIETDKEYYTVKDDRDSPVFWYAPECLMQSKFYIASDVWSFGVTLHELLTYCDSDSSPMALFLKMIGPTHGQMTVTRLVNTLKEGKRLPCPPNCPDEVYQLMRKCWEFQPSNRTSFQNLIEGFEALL
T3 sequence (P52333 822-1111 limits assumed): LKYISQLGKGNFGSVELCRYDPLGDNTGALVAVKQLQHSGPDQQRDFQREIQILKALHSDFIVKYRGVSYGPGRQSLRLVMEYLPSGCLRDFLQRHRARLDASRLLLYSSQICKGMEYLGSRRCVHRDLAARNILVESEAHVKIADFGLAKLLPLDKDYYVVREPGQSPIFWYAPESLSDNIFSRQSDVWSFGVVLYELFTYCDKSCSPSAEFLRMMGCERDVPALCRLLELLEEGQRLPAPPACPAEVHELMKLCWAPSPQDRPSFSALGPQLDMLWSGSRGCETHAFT

Row | SMILES | IC50 [1] [nM] | IC50 [2] [nM] | IC50 [4] [nM] | inhibition at 0.2 µM [3] [%] | inhibition at 1 µM [3] [%]
1 | CC(C)N1CCC(c2ccc(Nc3cc(NCc4ccccc4F)c(C(N)=O)cn3)cc2)CC1 [Example 108, 4-(2-fluorobenzylamino)-6-(4-(1-isopropylpiperidin-4-yl)phenylamino)nicotinamide] | 10 to 100 | 100 to 1000 | 1 to 10 | 14 | 37
2 | CCS(=O)(=O)N1CCC(c2ccc(Nc3cc(NCc4ccccc4F)c(C(N)=O)cn3)cc2)CC1 [Example 112, 6-(4-(1-(ethylsulfonyl)piperidin-4-yl)phenylamino)-4-(2-fluorobenzylamino)nicotinamide] | > 1000 | > 1000 | 10 to 100 | 8 | 42
3 | CN(C)C(=O)N1CCC(c2ccc(Nc3cc(NCc4ccccc4F)c(C(N)=O)cn3)cc2)CC1 [Example 114, 6-(4-(1-(dimethylcarbamoyl)piperidin-4-yl)phenylamino)-4-(2-fluorobenzylamino)nicotinamide] | 100 to 1000 | > 1000 | 10 to 100 | 14 | 51

Now from value to molecule, other results behind:

Row | IC50 [1] [nM] | IC50 [2] [nM] | IC50 [4] [nM] | SMILES | inhibition at 0.2 µM [3] [%] | inhibition at 1 µM [3] [%]
4 | 10 to 100 | 100 to 1000 | 1 to 10 | NC(=O)c1cnc(Nc2cccc(C3CCN(C4CCCC4)CC3)c2)cc1NCc1ccccc1F [Example 110, 6-(3-(1-cyclopentylpiperidin-4-yl)phenylamino)-4-(2-fluorobenzylamino)nicotinamide] | 24 | 68
5 | > 1000 | > 1000 | 10 to 100 | CS(=O)(=O)N1CCC(c2ccc(Nc3cc(NCc4ccccc4F)c(C(N)=O)cn3)cc2)CC1 [Example 111, 4-(2-fluorobenzylamino)-6-(4-(1-(methylsulfonyl)piperidin-4-yl)phenylamino)nicotinamide] | 22 | 46
